Data published in patent US20260234188A1, “CHEMOKINE-BINDING PEPTIDES” (Oxford University Innovation Limited, priority 2022, published 2026).
Entries after “also recorded” stand apart in the source; their conditions may differ.

Columns and labels:
[1] = system: panel of 24 biotinylated chemokines; test: Phage-display screen of HD2 NNK saturation mutagenesis library; format: binding, human; settings: for Chemokines Bound log2E 1-5 / Chemokines Bound log2E > 5: HD2 saturation mutants, chemokines on streptavidin beads, UniProt entry names; for peak log 2 E: best mutation at each residue
Text: FIG. 7. Exemplar results from phage display screens using saturation mutagenesis. A phage-display library was constructed using the HD2 sequence, replacing each residue encoding codon with the degenerate sequence NNK. The 16 degenerate sequences (which also encoded the parental HD2 sequence) were pooled and cloned into display phage. […] Exemplar peptides were selected such that log 2 E for at least one chemokine was greater than 5, and log 2 E for binding to control (CO5, was less than zero). […] The fold enrichment of parental HD2 is also indicated.
A phage-display library was constructed using the HD2 sequence, replacing each residue encoding codon with the degenerate sequence NNK. The 16 degenerate sequences (which also encoded the parental HD2 sequence) were pooled and cloned into display phage. […] Exemplar peptides were selected such that log 2 E for at least one chemokine was greater than 5, and log 2 E for binding to control (CO5, was less than zero). […] The fold enrichment of parental HD2 is also indicated.
A molecular level understanding of binding mechanism is needed for development of peptides as therapeutics and is usually obtained from structural analyses. As HD2 binds many chemokines this becomes a challenging task, and we explored if we could elucidate this using phage display mutagenesis. The role of each residue in HD2 for binding was examined in phage-display. A library of HD2 mutations that had NNK substituted at each residue and performed phage-display selection against a panel of 24 biotinylated chemokines, in parallel, as described in Example 7. This strategy allowed us to evaluate the impact not only of Ala substitutions, but also conservative, hydrophilic and hydrophobic substitutions, and compare with binding of parental HD2 which is also included in the library. Ala substitution removes side-chains beyond the β-carbon and can be used to infer the role of side-chain functional groups without affecting conformational flexibility of the backbone. […] These residues are within the two motifs identified previously. Other notable residues identified were Y8 and P10. We next judged the impact of Ala mutation by calculating the change in log 2 E (Δlog 2 E) between the mutant and parental HD2. A positive value of Δlog 2 E indicates increased binding, and a negative value decreased binding compared to parental HD2. […] As may be seen, the log 2 E for the parental HD2 was ~0 in these analyses indicating lack of enrichment.
Oligonucleotide pools were amplified using primers: oligo_fwd: 5′-[…] and oligo_rev2: 5′-tcgtcaccctcggcgcctcctcoggatcctccacc. Oligonucleotide PCR products were cloned into plasmid prSTOP4Nsi using NEB Builder HiFi Assembly following instructions of the manufacturer. The vector pool was used to transform electrocompetent Invitrogen ElectroMAX™ DH5α-E™ cells. Plasmid DNA was harvested by MaxiPrep (GeneJet Plasmid Maxiprep Kit) and was transformed into SS320 phage display electrocompetent cells (Lucigen), following the manufacturer's protocol, resuspended in 950 μL recovery media for each electroporation, transferred to 50 mL Falcon tubes, 100 μL 1011 CFU/mL M13KO7 helper phage (NEB) added and shaken at 37° C., 220 RPM for 1 h. 1 mL recovery culture was added to 2YT medium containing +50 ug/mL carbenicillin and 25 ug/mL kanamycin, and grown overnight at 37C, 220 rpm. Phage was precipitated from the culture supernatant by adding 22.5 mL of supernatant to 4.5 mL 20% PEG 8000/2.5 M NaCl, incubating on ice for 30 min, and centrifuging at 10,000 RPM, 4° C. for 10 min, and resuspending phage in 1 ml of PBT, followed by centrifugation at 13000 RPM, 4° C., for 10 min. […]

[2] = system: panel of 25 biotinylated chemokines (15 CC-class chemokines, 10 CXC-class chemokines); test: Phage-display screen of HD845 NNK mutagenesis library; format: binding, human; settings: for peak log 2 E: best mutation at each residue
Protocol: NNK mutagenesis library construction and screening was performed for the HD845 peptide using the methods described in Example 19. […] Following library selection with each chemokine, the enrichment (E) of each peptide was calculated in comparison to the input library, and expressed the enrichment as log 2 E, as this metric is correlated with binding affinity.
A two-pronged strategy was used to identify individual peptides with mutations that improve chemokine binding over the parental peptide HD845. To identify mutations that improve overall chemokine binding affinity, the best performing mutations were selected at each residue by their enhancement of mean log 2 E (FIG. 27A). To add in mutations that improve chemokine binding diversity, the best performing mutations at each residue were identified by their enhancement of peak log 2 E (FIG. 27B).

Row | Sequence | Chemokines Bound log2E 1-5 [1] | Chemokines Bound log2E > 5 [1] | other results
1 | DEDDYTAYAPLTCYFT [E1D] | – | – | mean log 2 E compared to parental HD2 ([1]; over all chemokines): enhancement over the parental that was not statistically significant
2 | EDDDYTAYAPLTCYFT [E2D] | – | – | mean log 2 E compared to parental HD2 ([1]; over all chemokines): enhancement over the parental that was not statistically significant
3 | EDEDYEDFFAPVTCYF [K10A] | – | – | peak log 2 E [2]: highest peak log 2 E at that residue; mean log 2 E compared to parental HD845 ([2]; over CC chemokines): significant improvement; mean log 2 E compared to parental HD845 ([2]; over all chemokines): significant improvement
4 | EDEDYFDFFKPVTCYF [E6F] | – | – | mean log 2 E compared to parental HD845 ([2]; over CC chemokines): significant improvement
5 | EDEDYWDFFKPVTCYF [E6W] | – | – | peak log 2 E [2]: highest peak log 2 E at that residue; mean log 2 E compared to parental HD845 ([2]; over XC chemokines): significant improvement; mean log 2 E compared to parental HD845 ([2]; over all chemokines): significant improvement
6 | EEDDYEAYAPLTCYFT [HD2_E6] | CCL1, CCL11, CCL15, CCL17,; also recorded: CCL18, CCL19, CCL2, CCL22,; also recorded: CCL28, CCL3, CCL4, CCL5, CCL8,; also recorded: X3CL1, CXL10, CXL11, CXL14 | SDF1, CXL13 | –
7 | EEDDYSAYAPLTCYFT [HD2_S6] | CCL11, CCL15, CCL17, CCL18,; also recorded: CCL2, CCL22, CCL4, CCL5, CCL8,; also recorded: X3CL1, CXL10, SDF1, CXL13, IL8 | CCL1, CCL3 | –
8 | EEDDYTAYADLTCYFT [HD2_D1C] | – | CXL11 | peak log 2 E [1]: highest peak log 2 E at that residue
9 | EEDDYTAYAPFTCYFT [HD2_F11] | CCL18, CXL11, CXL13, CXL14 | CCL20 | –
10 | EEDDYTAYAPLHCYFT [HD2_H12] | CCL15, CCL28, CCL4, CCL5 | CCL22 | –
11 | EEDDYTAYAPLICYFT [HD2_112] | CCL18, CCL25, CCL28, CCL4,; also recorded: X3CL1, CXL10, SDF1, CXL13,; also recorded: CXL14 | CCL19 | peak log 2 E [1]: highest peak log 2 E at that residue
12 | EEDDYTAYAPLTCYFD [HD2_D16] | CCL1, CCL11, CCL17, CCL18,; also recorded: CCL2, CCL22, CCL3, CCL4, CCL5,; also recorded: CCL8, X3CL1, CXL10, CXL11,; also recorded: CXL13, CXL14 | SDF1 | –
13 | EEDDYTAYAPLTSYFT [HD901] | – | – | effect on Δlog 2 E ([1]; conservative residue substitutions (Dayhoff PAM250), mutant versus parental HD2): significant deleterious effect
14 | EEDDYTAYAPLVCYFT [HD2_V12] | CCL18, CCL25, CCL28, CCL4,; also recorded: CCL8, X3CL1, CXL10, SDF1,; also recorded: CXL13, CXL14 | CCL19 | –
15 | EEDDYTAYAPQTCYFT [HD2_Q11] | CCL1, CCL11, CCL15, CCL18,; also recorded: CCL22, CCL4, CCL5, CCL8 | CCL17 | –
16 | EEDDYTAYAPTTCYFT [HD2_T11] | CCL11, CCL17, CCL18, CCL22,; also recorded: CCL4, CCL5, CCL8 | CCL15 | –
17 | EEDDYTAYAPVTCYFT [HD2_V11] | CCL1, CCL11, CCL15, CCL18,; also recorded: CCL2, CCL22, CCL28, CCL3,; also recorded: CCL4, CCL5, CCL8, CXL10,; also recorded: CXL11, CXL13 | CCL17 | –
18 | EEDDYTAYAPYTCYFT [HD2_Y11] | CCL1, CCL11, CCL15, CCL17,; also recorded: CCL18, CCL19, CCL2, CCL20,; also recorded: CCL3, CCL4, CCL5, CCL8, X3CL1,; also recorded: CXL11, CXL13, CXL14 | CCL22 | –
19 | EEDDYTDYAPLTCYFT [HD2_D7] | CCL1, CCL11, CCL15, CCL17, and CCL18, CCL19, CCL2, CCL22, and CCL28, CCL3, CCL4, CCL5, CCL8, and X3CL1, CXL10, CXL11, CXL14, and IL8 | SDF1, CXL13 | mean log 2 E compared to parental HD2 ([1]; over all chemokines): significant improvement
20 | EEDDYTEYAPLTCYFT [HD2_E7] | CCL1, CCL11, CCL15, CCL18,; also recorded: CCL2, CCL22, CCL28, CCL3,; also recorded: CCL4, CCL5, CCL8, X3CL1,; also recorded: CXL10, CXL14, IL8 | SDF1, CXL13 | –
21 | EEDDYTWYAPLTCYFT [A7W] | – | – | mean log 2 E compared to parental HD2 ([1]; over XC (CXC/CX3C) chemokines): significant improvement
22 | EEEDYTAYAPLTCYFT [HD2_E3] | CCL8, X3CL1; also recorded: CCL1, CCL11, CCL15, CCL17,; also recorded: CCL18, CCL22, CCL4, CCL5, | CCL3 | –
